The target in this experiment is T1, LHRH (Rattus norvegicus, UniProt P30969).
T1 construct: endogenous in cells; host or cells: rat pituitary cells (own knowledge of the cited Haviv 1989 method)
T1 sequence (P30969 1-327): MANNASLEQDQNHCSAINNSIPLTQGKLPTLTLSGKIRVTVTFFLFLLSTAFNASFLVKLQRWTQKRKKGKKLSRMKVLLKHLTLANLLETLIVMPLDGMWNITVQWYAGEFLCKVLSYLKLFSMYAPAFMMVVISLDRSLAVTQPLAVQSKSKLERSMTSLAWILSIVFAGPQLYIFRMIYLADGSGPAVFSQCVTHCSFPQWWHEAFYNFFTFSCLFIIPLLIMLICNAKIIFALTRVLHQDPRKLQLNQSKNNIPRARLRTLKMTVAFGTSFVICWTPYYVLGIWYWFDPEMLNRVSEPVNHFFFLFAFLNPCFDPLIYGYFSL
Description: in vitro test for LHRH antagonist potency (pA2). It is filed as cell-based. Particulars: negative logarithm of the antagonist concentration required to shift the response curve produced by the agonist leuprolide to two-fold higher concentration. The gist of the method:
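Rat LHRH receptor in vitro functional test; pA2 = negative log of the antagonist concentration shifting the leuprolide agonist response curve to two-fold higher concentration.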

Non-standard residues stand in square brackets, D forms with d. Residues, ends and D or L forms follow the SMILES beside them. *: point of attachment. dPhe(4-Cl) = N[C@H](Cc1ccc(Cl)cc1)C(=O)O; Lys(iPr) = CC(C)NCCCC[C@H](N)C(=O)O; NMeY = CN[C@@H](Cc1ccc(O)cc1)C(=O)O; d3Pal = N[C@H](Cc1cccnc1)C(=O)O; Nicotinoyl = O=C(c1cccnc1)*; X1 = O=C([C@@H]1CCCO1)*; Sar = CNCC(=O)O

In general, Kb refers to the equilibrium dissociation constant of an antagonist, usually derived from a functional assay. For the compound `CC(C)C[C@H](NC(=O)[C@@H](CCCCNC(=O)c1cccnc1)NC(=O)[C@H](Cc1ccc(O)cc1)N(C)C(=O)[C@H](CO)NC(=O)[C@@H](Cc1cccnc1)NC(=O)[C@@H](Cc1ccc(Cl)cc1)NC(=O)[C@@H](C)NC(=O)CNC(=O)[C@@H]1CCCO1)C(=O)N[C@@H](CCCCNC(C)C)C(=O)N1CCC[C@H]1C(=O)N[C@H](C)C(N)=O` [Example 100, N (S)-2-Tetrahydrofuroyl-Gly-DAla-D4ClPhe-D3Pal-Ser-NMeTyr-DLys(Nic)-Leu-Lys(Isp)-Pro-DAlaNH2] (X1-G[dA][dPhe(4-Cl)][d3Pal]S[NMeY][dK](Nicotinoyl)L[Lys(iPr)]P[dA]-NH2), the Kb was 21.9 nM. Consider `CC(C)C[C@H](NC(=O)[C@@H](CCCCNC(=O)c1cccnc1)NC(=O)[C@H](Cc1ccc(O)cc1)N(C)C(=O)[C@H](CO)NC(=O)[C@@H](Cc1cccnc1)NC(=O)[C@@H](Cc1ccc(Cl)cc1)NC(=O)CN(C)C(=O)CNC(=O)[C@@H]1CCCO1)C(=O)N[C@@H](CCCCNC(C)C)C(=O)N1CCC[C@H]1C(=O)N[C@H](C)C(N)=O` [Example 101, N (S)-2-Tetrahydrofuroyl-Gly-Sar-D4ClPhe-D3Pal-Ser-NMeTyr-DLys(Nic)-Leu-Lys(Isp)-Pro-DAlaNH2] (X1-G[Sar][dPhe(4-Cl)][d3Pal]S[NMeY][dK](Nicotinoyl)L[Lys(iPr)]P[dA]-NH2), for which the Kb was 42.7 nM.
